Patent publication US10561763B2, “Oxygen generating biomaterial” (THE BOARD OF REGENTS OF THE UNIVERSITY OF TEXAS SYSTEM, priority 2013, dated 2020)

Test: half-life of thermal oxygen release (thermolysis) of endoperoxides in CDCl3 at 25° C.
Type: physicochemical
Conditions: CDCL3, 25° C.
Text: In certain aspect an oxygen generating biomaterial can comprise a fast release thermolytic endoperoxide, a slow release thermolytic endoperoxide, or a slow release thermolytic endoperoxide and a fast release endoperoxide. A biomaterial can further comprise a singlet oxygen quencher. […] The ti/2 half-life is temperature dependent. This aids in both storage and release. The ti/2 is longer the lower the storage temperatures. […] The endoperoxide oxygen-carrier is most conveniently prepared by photo-oxidation of a precursor aromatic organic compound. The structure of the endoperoxide-forming compound determines its thermal stability and thus how rapidly oxygen is released and precursor compound reformed (via a “retro-Diels-Alder reaction”) at any given temperature. At body temperature the half-life (ti/2) for thermal release of ^1O2 from an endoperoxide (also known as “thermolysis”) can range from seconds to days. By combining two or more endoperoxide compounds, one with a relatively slow release rate (long ti/2) at the working temperature, and one or more with faster release rates (short ti/2), it is possible to form delivery systems with a wide range of rates, durations, and profiles of oxygen generation to suit a variety of end-use applications. In some applications it is possible to design a system that could be recharged by photo-oxidizing the reformed precursor compound(s). FIG. 1 illustrates an example of the chemistry involved.

Row | SMILES | ti/2 in hours as measured in the presence of CDCL3 at 25° C.
1 | Cc1cccc2c1C1(C)C=CC2OO1 (centres unmarked) [1,8-dimethylnaphthalene-1,4-endoperoxide] | 30 h
2 | CC1=CC2(C)OOC1(C)c1ccccc12 (centres unmarked) [1,2,4-trimethylnaphthalene-1,4-endoperoxide] | 70 h
3 | CC1=C(C)C2(C)OOC1(C)c1ccccc12 [1,2,3,4-tetramethylnaphthalene-1,4-endoperoxide] | indeterminant
4 | Cc1cccc2c1C1(C)C=CC2(C)OO1 (centres unmarked) [1,4,5-trimethylnaphthalene-1,4-endoperoxide] | 290 h
5 | CC12C=CC(C)(OO1)c1ccccc12 [1,4-dimethylnaphthalene-1,4-endoperoxide] | 5 h
